Test: xn = mol fraction of the nth substance listed
Details: Fluid (supercritical or subcritical phases), vibrating tube

CCCCCO [pentan-1-ol] + O=C=O
Details	mass density [kg/m3]
342.87 K, 20033 kPa, x2 = 0.4651	814.31
342.87 K, 21025 kPa, x2 = 0.4651	815.82
342.87 K, 21037 kPa, x2 = 0.3624	811.12
342.87 K, 21039 kPa, x2 = 0.7274	812.39
342.87 K, 21983 kPa, x2 = 0.4651	817.26
342.87 K, 21990 kPa, x2 = 0.3624	812.11
342.87 K, 22001 kPa, x2 = 0.7274	815.49
342.87 K, 23014 kPa, x2 = 0.4651	818.77
342.87 K, 23015 kPa, x2 = 0.7274	818.69
342.87 K, 23033 kPa, x2 = 0.3624	813.18
342.87 K, 24005 kPa, x2 = 0.3624	814.16
342.87 K, 24023 kPa, x2 = 0.4651	820.23
342.87 K, 24099 kPa, x2 = 0.7274	821.95
342.87 K, 25028 kPa, x2 = 0.3624	815.18
342.88 K, 3034 kPa, x2 = 0.0816	781.33
342.88 K, 4000 kPa, x2 = 0.0816	782.24
342.88 K, 4969 kPa, x2 = 0.0816	783.19
342.88 K, 5981 kPa, x2 = 0.0816	784.14
342.88 K, 7023 kPa, x2 = 0.0816	785.12
342.88 K, 8012 kPa, x2 = 0.0816	786.04
342.88 K, 9030 kPa, x2 = 0.0816	786.97
342.88 K, 10026 kPa, x2 = 0.0816	787.86
342.88 K, 10992 kPa, x2 = 0.0816	788.72
342.88 K, 11981 kPa, x2 = 0.0816	789.59
342.88 K, 13062 kPa, x2 = 0.0816	790.54
342.88 K, 14001 kPa, x2 = 0.9216	654.38
342.88 K, 14013 kPa, x2 = 0.0816	791.33
342.88 K, 15014 kPa, x2 = 0.9216	679.88
342.88 K, 15025 kPa, x2 = 0.0816	792.19
342.88 K, 15995 kPa, x2 = 0.0816	793.03
342.88 K, 16009 kPa, x2 = 0.9216	699.02
342.88 K, 16999 kPa, x2 = 0.0816	793.86
342.88 K, 17032 kPa, x2 = 0.9216	715.18
342.88 K, 18002 kPa, x2 = 0.9216	728.34
342.88 K, 18009 kPa, x2 = 0.0816	794.69
342.88 K, 19029 kPa, x2 = 0.0816	795.51
342.88 K, 19057 kPa, x2 = 0.9216	740.82
342.88 K, 19987 kPa, x2 = 0.0816	796.28
342.88 K, 19996 kPa, x2 = 0.9216	750.81
342.88 K, 21039 kPa, x2 = 0.0816	797.11
342.88 K, 21039 kPa, x2 = 0.9216	760.88
342.88 K, 21996 kPa, x2 = 0.0816	797.87
342.88 K, 22026 kPa, x2 = 0.9216	769.6
342.88 K, 22991 kPa, x2 = 0.0816	798.65
342.88 K, 24056 kPa, x2 = 0.0816	799.48
342.88 K, 25041 kPa, x2 = 0.0816	800.25
342.89 K, 14024 kPa, x2 = 0.8573	720.89
342.89 K, 15020 kPa, x2 = 0.8573	735.53
342.89 K, 16007 kPa, x2 = 0.8573	747
342.89 K, 17031 kPa, x2 = 0.8573	757.08
342.89 K, 18025 kPa, x2 = 0.8573	765.71
342.89 K, 19016 kPa, x2 = 0.8573	773.47
342.89 K, 20036 kPa, x2 = 0.8573	780.77
342.89 K, 21016 kPa, x2 = 0.8573	787.25
342.89 K, 21989 kPa, x2 = 0.8573	793.31
342.89 K, 23049 kPa, x2 = 0.8573	799.42
342.89 K, 24035 kPa, x2 = 0.8573	804.78
342.89 K, 24945 kPa, x2 = 0.8573	809.51
342.95 K, 13102 kPa, x2 = 0.6054	801.79
342.95 K, 14086 kPa, x2 = 0.6054	804.2
342.95 K, 15021 kPa, x2 = 0.6054	806.46
342.95 K, 16051 kPa, x2 = 0.6054	808.84
342.95 K, 17053 kPa, x2 = 0.6054	811.1
342.95 K, 18061 kPa, x2 = 0.6054	813.31
342.95 K, 19049 kPa, x2 = 0.6054	815.42
342.95 K, 20084 kPa, x2 = 0.6054	817.54
342.95 K, 21075 kPa, x2 = 0.6054	819.56
342.95 K, 22070 kPa, x2 = 0.6054	821.54
342.95 K, 23069 kPa, x2 = 0.6054	823.48
342.95 K, 24068 kPa, x2 = 0.6054	825.37
342.95 K, 25106 kPa, x2 = 0.6054	827.29
342.96 K, 7006 kPa, x2 = 0.1347	785.93
342.96 K, 8027 kPa, x2 = 0.1347	786.83
342.96 K, 9036 kPa, x2 = 0.1347	787.79
342.96 K, 10053 kPa, x2 = 0.1347	788.74
342.96 K, 11003 kPa, x2 = 0.1347	789.61
342.96 K, 12025 kPa, x2 = 0.1347	790.55
342.96 K, 13042 kPa, x2 = 0.1347	791.48
342.96 K, 14006 kPa, x2 = 0.1347	792.33
342.96 K, 15009 kPa, x2 = 0.1347	793.22
342.96 K, 16036 kPa, x2 = 0.1347	794.12
342.96 K, 17009 kPa, x2 = 0.1347	794.98
342.96 K, 18011 kPa, x2 = 0.1347	795.84
342.96 K, 19019 kPa, x2 = 0.1347	796.7
342.96 K, 20016 kPa, x2 = 0.1347	797.55
342.96 K, 20998 kPa, x2 = 0.1347	798.37
342.96 K, 22010 kPa, x2 = 0.1347	799.2
342.96 K, 23002 kPa, x2 = 0.1347	800.03
342.96 K, 24085 kPa, x2 = 0.1347	800.92
342.96 K, 25038 kPa, x2 = 0.1347	801.69
352.71 K, 508 kPa, x2 = 0	768.15
352.71 K, 1011 kPa, x2 = 0	768.66
352.71 K, 1995 kPa, x2 = 0	769.61
352.71 K, 3014 kPa, x2 = 0	770.57
352.71 K, 3998 kPa, x2 = 0	771.49
352.71 K, 5022 kPa, x2 = 0	772.45
352.71 K, 6012 kPa, x2 = 0	773.35
352.71 K, 7006 kPa, x2 = 0	774.26
352.71 K, 8024 kPa, x2 = 0	775.17
352.71 K, 9005 kPa, x2 = 0	776.05
352.71 K, 10016 kPa, x2 = 0	776.94
352.71 K, 11026 kPa, x2 = 0	777.81
352.71 K, 12001 kPa, x2 = 0	778.65
352.71 K, 13002 kPa, x2 = 0	779.5
352.71 K, 14026 kPa, x2 = 0	780.35
352.71 K, 15000 kPa, x2 = 0	781.18
352.71 K, 16005 kPa, x2 = 0	781.98
352.71 K, 17023 kPa, x2 = 0	782.81
352.71 K, 18003 kPa, x2 = 0	783.59
352.71 K, 19049 kPa, x2 = 0	784.43
352.71 K, 20035 kPa, x2 = 0	785.2
352.71 K, 21002 kPa, x2 = 0	785.96
352.71 K, 21995 kPa, x2 = 0	786.73
352.71 K, 23020 kPa, x2 = 0	787.52
352.71 K, 24045 kPa, x2 = 0	788.32
352.71 K, 25009 kPa, x2 = 0	789.05
352.73 K, 17393 kPa, x2 = 0.9757	574.15
352.73 K, 18036 kPa, x2 = 0.9757	591.88
352.73 K, 19032 kPa, x2 = 0.9757	616.27
352.73 K, 20013 kPa, x2 = 0.9757	637.17
352.73 K, 21057 kPa, x2 = 0.9757	656.66
352.73 K, 22011 kPa, x2 = 0.9757	672.48
352.73 K, 23064 kPa, x2 = 0.9757	688.28
352.73 K, 24053 kPa, x2 = 0.9757	701.67

Reference: the NIST ThermoML archive (doi:10.1016/j.jct.2007.07.005)
